In patent US6352958B1, “Cycloimido-substituted benzofused heterocyclic herbicides” (FMC Corporation, priority 1997, dated 2002):

Assays:
Format in all cases: in vivo
[1] = tested on: wheat (Triticum aestivum var. Lew); test: Postemergence herbicidal activity, wheat; conditions: rate of application 0.3 Kg/Ha, rated after 12-17 days
[2] = tested on: blackgrass (Aloepecurus myosuroides); test: Preemergence herbicidal activity, blackgrass; conditions: Rate of Application 0.3 Kg/Ha, examined after 12-17 days
[3] = tested on: common chickweed (Stellaria media); test: Preemergence herbicidal activity, chickweed; conditions: Rate of Application 0.3 Kg/Ha, examined after 12-17 days
[4] = tested on: wheat (Triticum aestivum var. Lew); test: Preemergence herbicidal activity, wheat; conditions: Rate of Application 0.3 Kg/Ha, examined after 12-17 days
[5] = tested on: common cocklebur (Xanthium strumarium L.); test: Preemergence herbicidal activity, cocklebur; conditions: Rate of Application 0.3 Kg/Ha, examined after 12-17 days
[6] = tested on: green foxtail (Setaria viridis); test: Postemergence herbicidal activity, green foxtail; conditions: rate of application 0.3 Kg/Ha, rated after 12-17 days
[7] = tested on: field corn (Zea mays var. Pioneer 3732); test: Postemergence herbicidal activity, corn; conditions: rate of application 0.3 Kg/Ha, rated after 12-17 days
[8] = tested on: blackgrass (Aloepecurus myosuroides); test: Postemergence herbicidal activity, blackgrass; conditions: rate of application 0.3 Kg/Ha, rated after 12-17 days
[9] = tested on: green foxtail (Setaria viridis); test: Preemergence herbicidal activity, green foxtail; conditions: Rate of Application 0.3 Kg/Ha, examined after 12-17 days
[10] = tested on: common chickweed (Stellaria media); test: Postemergence herbicidal activity, chickweed; conditions: rate of application 0.3 Kg/Ha, rated after 12-17 days
[11] = tested on: Johnsongrass (Sorghum halepense); test: Postemergence herbicidal activity, johnsongrass; conditions: rate of application 0.3 Kg/Ha, rated after 12-17 days
[12] = tested on: field corn (Zea mays var. Pioneer 3732); test: Preemergence herbicidal activity, corn; conditions: Rate of Application 0.3 Kg/Ha, examined after 12-17 days
[13] = tested on: morningglory (Ipomea lacunosa or Ipomea hederacea); test: Postemergence herbicidal activity, morningglory; conditions: rate of application 0.3 Kg/Ha, rated after 12-17 days
[14] = tested on: velvetleaf (Abutilon theophrasti); test: Postemergence herbicidal activity, velvetleaf; conditions: rate of application 0.3 Kg/Ha, rated after 12-17 days
[15] = tested on: soybean (Glycine max var. Winchester); test: Postemergence herbicidal activity, soybean; conditions: rate of application 0.3 Kg/Ha, rated after 12-17 days
[16] = tested on: velvetleaf (Abutilon theophrasti); test: Preemergence herbicidal activity, velvetleaf; conditions: Rate of Application 0.3 Kg/Ha, examined after 12-17 days
[17] = tested on: morningglory (Ipomea lacunosa or Ipomea hederacea); test: Preemergence herbicidal activity, morningglory; conditions: Rate of Application 0.3 Kg/Ha, examined after 12-17 days
[18] = tested on: Johnsongrass (Sorghum halepense); test: Preemergence herbicidal activity, johnsongrass; conditions: Rate of Application 0.3 Kg/Ha, examined after 12-17 days
[19] = tested on: soybean (Glycine max var. Winchester); test: Preemergence herbicidal activity, soybean; conditions: Rate of Application 0.3 Kg/Ha, examined after 12-17 days
[20] = tested on: common cocklebur (Xanthium strumarium L.); test: Postemergence herbicidal activity, cocklebur; conditions: rate of application 0.3 Kg/Ha, rated after 12-17 days

Row | Structure (SMILES) | Postemergence herbicidal activity (% control) WHT [1] [%] | PREEMERGENCE HERBICIDAL ACTIVITY (% CONTROL) ALOMY [2] [%] | PREEMERGENCE HERBICIDAL ACTIVITY (% CONTROL) STEME [3] [%] | PREEMERGENCE HERBICIDAL ACTIVITY (% CONTROL) WHT [4] [%] | PREEMERGENCE HERBICIDAL ACTIVITY (% CONTROL) XANPE [5] [%] | Postemergence herbicidal activity (% control) SETVI [6] [%] | Postemergence herbicidal activity (% control) CRN [7] [%] | Postemergence herbicidal activity (% control) ALOMY [8] [%] | PREEMERGENCE HERBICIDAL ACTIVITY (% CONTROL) SETVI [9] [%] | Postemergence herbicidal activity (% control) STEME [10] [%] | Postemergence herbicidal activity (% control) SORHA [11] [%] | PREEMERGENCE HERBICIDAL ACTIVITY (% CONTROL) CRN [12] [%] | Postemergence herbicidal activity (% control) IPOSS [13] [%] | Postemergence herbicidal activity (% control) ABUTH [14] [%] | Postemergence herbicidal activity (% control) SOY [15] [%] | PREEMERGENCE HERBICIDAL ACTIVITY (% CONTROL) ABUTH [16] [%] | PREEMERGENCE HERBICIDAL ACTIVITY (% CONTROL) IPOSS [17] [%] | PREEMERGENCE HERBICIDAL ACTIVITY (% CONTROL) SORHA [18] [%] | PREEMERGENCE HERBICIDAL ACTIVITY (% CONTROL) SOY [19] [%] | Postemergence herbicidal activity (% control) XANPE [20] [%]
1 | CCOC(=O)c1cc2cccc(-n3c(=O)cc(C(F)(F)F)n(C)c3=O)c2o1 [Compound 267] | 15 | 50 | 0 | 10 | 50 | 30 | 50 | 20 | 5 | 10 | 20 | 20 | 40 | 80 | 50 | 10 | 10 | 0 | 0 | 10
2 | Cn1c(C(F)(F)F)cc(=O)n(-c2ccc(Cl)c3cc(NC(=O)OC(C)(C)C)oc23)c1=O [Compound 272] | 30 | 70 | 100 | 0 | 20 | 70 | 45 | 20 | 90 | 50 | 40 | 20 | 60 | 100 | 50 | 100 | 70 | 60 | 20 | 50
3 | Cn1c(C(F)(F)F)cc(=O)n(-c2c(F)cc(Cl)c3cc(C(N)=O)oc23)c1=O [Compound 273] | 60 | 90 | 100 | 80 | 100 | 100 | 95 | 80 | 100 | 90 | 100 | 90 | 100 | 100 | 95 | 100 | 100 | 100 | 100 | 100
4 | CNC(=O)c1cc2c(Cl)cc(F)c(-n3c(=O)cc(C(F)(F)F)n(C)c3=O)c2o1 [Compound 274] | 60 | 95 | 90 | 100 | 100 | 100 | 95 | 90 | 100 | 90 | 100 | 90 | 100 | 100 | 95 | 100 | 100 | 100 | 100 | 100
5 | CN(C)C(=O)c1cc2c(Cl)cc(F)c(-n3c(=O)cc(C(F)(F)F)n(C)c3=O)c2o1 [Compound 275] | 70 | 80 | 100 | 80 | 100 | 100 | 90 | 95 | 100 | 100 | 100 | 100 | 100 | 100 | 100 | 100 | 100 | 95 | 100 | 100
6 | Cn1c(C(F)(F)F)cc(=O)n(-c2c(F)cc(Cl)c3[nH]c(C(F)(F)Cl)nc23)c1=O [Compound 366] | 30 | 0 | 0 | 10 | 10 | 50 | 80 | 30 | 50 | 30 | 50 | 0 | 80 | 95 | 70 | 70 | 20 | 40 | 10 | 100
7 | CC(C)c1nc2c(-n3c(=O)cc(C(F)(F)F)n(C)c3=O)c(F)cc(Cl)c2[nH]1 [Compound 368] | 100 | 95 | 100 | 100 | 100 | 100 | 100 | 100 | 100 | 100 | 100 | 95 | 100 | 100 | 100 | 100 | 100 | 100 | 100 | 100
